This experiment addresses GLP-1R (Homo sapiens, UniProt P43220). The experiment can be described thus: GLP-1R Activation - cAMP Assay. The experiment is classed as cell-based. The settings on record: cAMP increase in CHO cells stably expressing GLP-1R; each compound run on one of the two cAMP assays (Assay 1 or Assay 2, not specified). In a few lines:
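cAMP rise read by HTRF after 30 min agonist exposure (10-point titration, 37 °C) in HBSS/20 mM Hepes/0.1% BSA, following 1 h pre-incubation. Cells: stable GLP-1R CHO line, 1,000/well, seeded overnight. Sigmoidal fit of response vs log concentration gives EC50.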
In general terms: cAMP levels reflect the balance of adenylyl cyclase and phosphodiesterase activity.

Chain of GLP-1R (P43220 24-463): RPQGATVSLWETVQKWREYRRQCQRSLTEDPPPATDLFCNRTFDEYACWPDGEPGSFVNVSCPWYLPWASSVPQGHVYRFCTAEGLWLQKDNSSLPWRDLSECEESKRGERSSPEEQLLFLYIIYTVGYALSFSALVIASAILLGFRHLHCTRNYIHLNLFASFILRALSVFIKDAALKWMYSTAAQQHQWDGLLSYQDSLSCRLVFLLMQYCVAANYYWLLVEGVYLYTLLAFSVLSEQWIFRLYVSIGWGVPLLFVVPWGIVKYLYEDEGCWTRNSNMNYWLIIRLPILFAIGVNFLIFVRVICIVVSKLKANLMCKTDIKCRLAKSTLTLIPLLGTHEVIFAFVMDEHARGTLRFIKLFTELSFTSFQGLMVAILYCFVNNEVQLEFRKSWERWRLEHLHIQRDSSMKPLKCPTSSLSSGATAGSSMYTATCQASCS

As for `COCCn1c(Cc2cc(F)c(-c3cccc(OCc4ccc(OC(F)(F)F)cc4)n3)cc2F)nc2ccc(C(=O)O)cc21` [Example 32, 2-(2,5-difluoro-4-(6-((4-(trifluoromethoxy)benzyl)oxy)pyridin-2-yl)benzyl)-1-(2-methoxyethyl)-1H-benzo[d]imidazole-6-carboxylic Acid], it took 3.43 nM to reach a half-maximal effect (EC50). Under `C#Cc1ccc(COc2cccc(-c3cc(F)c(Cc4nc5ccc(C(=O)O)cc5n4CCOC)cc3F)n2)c(F)c1` [Example 111] stands 1.46 nM; under `COCCn1c(Cc2c(F)cc(-c3ccc(F)c(OCc4ccc(-n5ccnn5)cc4)n3)c(F)c2F)nc2c(F)cc(C(=O)O)cc21` [Example 223, 2-(4-(6-((4-(1H-1,2,3-triazol-1-yl)benzyl)oxy)-5-fluoropyridin-2-yl)-2,3,6-trifluorobenzyl)-4-fluoro-1-(2-methoxyethyl)-1H-benzo[d]imidazole-6-carboxylic acid], 0.126 nM. The result for `COCCn1c(Cc2c(F)cc(-c3ccc(F)c(OCc4cnc(-n5ccnn5)cc4Cl)n3)c(F)c2F)nc2c(F)cc(C(=O)O)cc21` [Example 213, 2-(4-(6-((4-chloro-6-(1H-1,2,3-triazol-1-yl)pyridin-3-yl)methoxy)-5-fluoropyridin-2-yl)-2,3,6-trifluorobenzyl)-4-fluoro-1-(2-methoxyethyl)-1H-benzo[d]imidazole-6-carboxylic acid] reads 0.042 nM; that for `CC1(C)COC[C@H]1n1c(Cc2cc(F)c(-c3cccc(OCc4ccc(F)cc4F)n3)cc2F)nc2ccc(C(=O)O)cc21` [Example 466, (S)-2-(4-(6-((2,4-difluorobenzyl)oxy)pyridin-2-yl)-2,5-difluorobenzyl)-1-(4,4-dimethyltetrahydrofuran-3-yl)-1H-benzo[d]imidazole-6-carboxylic acid], 0.124 nM.

Regarding `CC1(C)COC[C@H]1n1c(Cc2ccc(-c3cccc(OCc4ccc(C#N)cc4)n3)cc2F)nc2c(F)cc(C(=O)O)cc21` [Example 372, (S)-2-(4-(6-((4-cyanobenzyl)oxy)pyridin-2-yl)-2-fluorobenzyl)-1-(4,4-dimethyltetrahydrofuran-3-yl)-4-fluoro-1H-benzo[d]imidazole-6-carboxylic acid], the EC50 – broadly, the concentration that produces a half-maximal response – is 0.163 nM. On to `Cc1cc(Cc2nc3c(F)cc(C(=O)O)cc3n2[C@@H]2COCC2(C)C)c(Cl)cc1-c1ccnc(OCc2ccc(C#N)cc2F)n1` [Example 319, (S)-2-(2-chloro-4-(2-((4-cyano-2-fluorobenzyl)oxy)pyrimidin-4-yl)-5-methylbenzyl)-1-(4,4-dimethyltetrahydrofuran-3-yl)-4-fluoro-1H-benzo[d]imidazole-6-carboxylic acid], for which the EC50 stood at 0.346 nM. The result for `CC1(C)COC[C@@H]1n1c(Cc2ccc(-c3cccc(OCc4ccc(C#N)cc4F)n3)cc2F)nc2ccc(C(=O)O)cc21` (single isomer, unassigned) [Example 379] reads 0.574 nM; that for `CC1(C)COC[C@H]1n1c(Cc2cc(F)c(-c3cccc(OCc4ccc(C(F)(F)F)cc4F)n3)cc2F)nc2ccc(C(=O)O)cc21` [Example 168, (S)-2-(2,5-difluoro-4-(6-((2-fluoro-4-(trifluoromethyl)benzyl)oxy)pyridin-2-yl)benzyl)-1-(4,4-dimethyltetrahydrofuran-3-yl)-1H-benzo[d]imidazole-6-carboxylic Acid], 0.388 nM. Under `N#Cc1ccc(COc2cccc(-c3ccc(Cc4nc5ccc(C(=O)O)cc5n4[C@H]4CCOC4)c(F)c3)n2)c(F)c1` [Example 210, (S)-2-(4-(6-((4-cyano-2-fluorobenzyl)oxy)pyridin-2-yl)-2-fluorobenzyl)-1-(tetrahydrofuran-3-yl)-1H-benzo[d]imidazole-6-carboxylic acid] stands 14.1 nM. The result for `CC1(C)COC[C@H]1n1c(Cc2c(F)cc(-c3cccc(OCc4ccc(Cl)cc4)n3)c(F)c2F)nc2c(F)cc(C(=O)O)cc21` [Example 243, (S)-2-(4-(6-((4-chlorobenzyl)oxy)pyridin-2-yl)-2,3,6-trifluorobenzyl)-1-(4,4-dimethyltetrahydrofuran-3-yl)-4-fluoro-1H-benzo[d]imidazole-6-carboxylic acid] reads 0.022 nM; that for `CC1(C)COC[C@H]1n1c(Cc2cc(F)c(-c3ccnc(OCc4ccc(F)cc4)n3)cc2F)nc2ccc(C(=O)O)cc21` [Example 575, (S)-2-(2,5-difluoro-4-(2-((4-fluorobenzyl)oxy)pyrimidin-4-yl)benzyl)-1-(4,4-dimethyltetrahydrofuran-3-yl)-1H-benzo[d]imidazole-6-carboxylic acid], 0.186 nM; that for `CO[C@]1(C)COC[C@@H]1n1c(Cc2cc(F)c(-c3cccc(OCc4ccc(Cl)cc4F)n3)cc2F)nc2ccc(C(=O)O)cc21` (single isomer, unassigned) [Example 473], 0.092 nM. The molecule `CC1(C)COC[C@H]1n1c(Cc2cc(F)c(-c3cccc(OCc4ccc(Cl)cc4C#N)n3)cc2F)nc2ccc(C(=O)O)cc21` [Example 449, (S)-2-(4-(6-((4-chloro-2-cyanobenzyl)oxy)pyridin-2-yl)-2,5-difluorobenzyl)-1-(4,4-dimethyltetrahydrofuran-3-yl)-1H-benzo[d]imidazole-6-carboxylic acid] returned an EC50 of 0.021 nM. The result for `Cc1ncc(-c2ccc(COc3cccc(-c4cc(F)c(Cc5nc6ccc(C(=O)O)cc6n5[C@@H]5COCC5(C)C)cc4F)n3)c(F)c2)s1` [Example 444, (S)-2-(2,5-difluoro-4-(6-((2-fluoro-4-(2-methylthiazol-5-yl)benzyl)oxy)pyridin-2-yl)benzyl)-1-(4,4-dimethyltetrahydrofuran-3-yl)-1H-benzo[d]imidazole-6-carboxylic acid] reads 0.365 nM; that for `CC1(C)COC[C@H]1n1c(Cc2c(F)cc(-c3ccnc(OCc4ccc(F)cc4)n3)c(F)c2F)nc2ccc(C(=O)O)cc21` [Example 574, (S)-1-(4,4-dimethyltetrahydrofuran-3-yl)-2-(2,3,6-trifluoro-4-(2-((4-fluorobenzyl)oxy)pyrimidin-4-yl)benzyl)-1H-benzo[d]imidazole-6-carboxylic acid], 0.457 nM. Under `COCCn1c(Cc2cc(F)c(-c3cccc(OCc4ccc5nccn5c4)n3)cc2F)nc2ccc(C(=O)O)cc21` [Example 30, 2-(2,5-difluoro-4-(6-(imidazo[1,2-a]pyridin-6-ylmethoxy)pyridin-2-yl)benzyl)-1-(2-methoxyethyl)-1H-benzo[d]imidazole-6-carboxylic Acid] stands 49.9 nM. The result for `COCCn1c(Cc2cc(F)c(-c3ccc(F)c(OCc4cnc(-n5ccnn5)cc4Cl)n3)cc2F)nc2ccc(C(=O)O)cc21` [Example 215, 2-(4-(6-((4-chloro-6-(1H-1,2,3-triazol-1-yl)pyridin-3-yl)methoxy)-5-fluoropyridin-2-yl)-2,5-difluorobenzyl)-1-(2-methoxyethyl)-1H-benzo[d]imidazole-6-carboxylic acid] reads 0.21 nM; that for `CC1(C)COC[C@H]1n1c(Cc2cc(F)c(-c3cccc(OCc4ccc(-n5cncn5)cc4)n3)cc2F)nc2ccc(C(=O)O)cc21` [Example 448, (S)-2-(4-(6-((4-(1H-1,2,4-triazol-1-yl)benzyl)oxy)pyridin-2-yl)-2,5-difluorobenzyl)-1-(4,4-dimethyltetrahydrofuran-3-yl)-1H-benzo[d]imidazole-6-carboxylic acid], 0.352 nM. In turn, `COCCn1c(Cc2cc(F)c(-c3cccc(OCc4cnc(-c5cn(C)nn5)cn4)n3)cc2F)nc2ccc(C(=O)O)cc21` [Example 37, 2-(2,5-difluoro-4-(6-((5-(1-methyl-1H-1,2,3-triazol-4-yl)pyrazin-2-yl)methoxy)pyridin-2-yl)benzyl)-1-(2-methoxyethyl)-1H-benzo[d]imidazole-6-carboxylic Acid] returned an EC50 of 1.97 nM. Under `CC1(C)COC[C@H]1n1c(Cc2cc(F)c(-c3ccnc(OCc4ccc(C#N)cc4F)n3)cc2F)nc2c(F)cc(C(=O)O)cc21` [Example 205, (S)-2-(4-(2-((4-cyano-2-fluorobenzyl)oxy)pyrimidin-4-yl)-2,5-difluorobenzyl)-1-(4,4-dimethyltetrahydrofuran-3-yl)-4-fluoro-1H-benzo[d]imidazole-6-carboxylic acid] stands 0.097 nM.

With `COCCn1c(Cc2cc(F)c(-c3cccc(OCc4ccc(-c5cccnc5)cc4F)n3)cc2F)nc2ccc(C(=O)O)cc21` [Example 103, 2-(2,5-difluoro-4-(6-((2-fluoro-4-(pyridin-3-yl)benzyl)oxy)pyridin-2-yl)benzyl)-1-(2-methoxyethyl)-1H-benzo[d]imidazole-6-carboxylic Acid], a half-maximal response (EC50) required 1.23 nM.

In the case of `COc1cc(Cl)ccc1COc1cccc(-c2cc(F)c(Cc3nc4ccc(C(=O)O)cc4n3[C@@H]3COCC3(C)C)cc2F)n1` [Example 462, (S)-2-(4-(6-((4-chloro-2-methoxybenzyl)oxy)pyridin-2-yl)-2,5-difluorobenzyl)-1-(4,4-dimethyltetrahydrofuran-3-yl)-1H-benzo[d]imidazole-6-carboxylic acid], the EC50 came to 0.141 nM. Against the preceding molecule, the EC50 is about 8.7-fold lower. Under `COCCn1c(Cc2c(F)cc(-c3cccc(OCc4ccc(Cl)cc4)n3)c(F)c2F)nc2c(F)cc(C(=O)O)cc21` [Example 377, 2-(4-(6-((4-chlorobenzyl)oxy)pyridin-2-yl)-2,3,6-trifluorobenzyl)-4-fluoro-1-(2-methoxyethyl)-1H-benzo[d]imidazole-6-carboxylic acid] stands 0.188 nM; under `CO[C@]1(C)COC[C@H]1n1c(Cc2cc(F)c(-c3cccc(OCc4ccc(C#N)cc4F)n3)cc2F)nc2ccc(C(=O)O)cc21` (single isomer, unassigned) [Example 312], 0.397 nM; under `CC1(C)COC[C@H]1n1c(Cc2cc(F)c(-c3cccc(OCc4ccc(C#N)cc4)n3)cc2F)nc2cc(F)c(C(=O)O)cc21` [Example 418, (S)-2-(4-(6-((4-cyanobenzyl)oxy)pyridin-2-yl)-2,5-difluorobenzyl)-1-(4,4-dimethyltetrahydrofuran-3-yl)-5-fluoro-1H-benzo[d]imidazole-6-carboxylic acid], 0.199 nM.

The values are drawn from patent US12570642B2, “GLP-IR modulating compounds” (Gilead Sciences, Inc., priority 2021, dated 2026).
